Consider one compound from patent US7205316B2, “Tri- and bi-cyclic heteroaryl histamine-3 receptor ligands” (Abbott Laboratories, priority 2004, dated 2007).

One may read the melting point as the temperature of the solid-liquid transition.

Counter-ions that a name gives are not always drawn.

In the case of `Cc1nc2cc(-c3ccc4nc(CCN5CCC[C@H]5C)ccc4c3)ccc2s1` (as salt: hydrochloride) [Example 14, 6-(2-Methyl-benzothiazol-5-yl)-2-[2-(2R-methyl-pyrrolidin-1-yl)-ethyl]-quinoline], the melting point is 182 to 183 °C.
